The values that follow come from patent US20220098154A1 (IDEAYA Biosciences, Inc., priority 2019, published 2022).

Molecules are shown by their SMILES. Some results are limits rather than exact numbers.

Broadly, the IC50 is the point on the concentration scale where inhibition reaches its midpoint. Low readings indicate greater potency in that assay, high ones weaker potency in that assay.

This test has as its target T1, Pol theta polymerase domain (residues 1819-2590) (Homo sapiens, UniProt O75417).
T1 construct: Pol theta polymerase domain (residues 1819-2590)
T1 sequence (O75417 1819-2590): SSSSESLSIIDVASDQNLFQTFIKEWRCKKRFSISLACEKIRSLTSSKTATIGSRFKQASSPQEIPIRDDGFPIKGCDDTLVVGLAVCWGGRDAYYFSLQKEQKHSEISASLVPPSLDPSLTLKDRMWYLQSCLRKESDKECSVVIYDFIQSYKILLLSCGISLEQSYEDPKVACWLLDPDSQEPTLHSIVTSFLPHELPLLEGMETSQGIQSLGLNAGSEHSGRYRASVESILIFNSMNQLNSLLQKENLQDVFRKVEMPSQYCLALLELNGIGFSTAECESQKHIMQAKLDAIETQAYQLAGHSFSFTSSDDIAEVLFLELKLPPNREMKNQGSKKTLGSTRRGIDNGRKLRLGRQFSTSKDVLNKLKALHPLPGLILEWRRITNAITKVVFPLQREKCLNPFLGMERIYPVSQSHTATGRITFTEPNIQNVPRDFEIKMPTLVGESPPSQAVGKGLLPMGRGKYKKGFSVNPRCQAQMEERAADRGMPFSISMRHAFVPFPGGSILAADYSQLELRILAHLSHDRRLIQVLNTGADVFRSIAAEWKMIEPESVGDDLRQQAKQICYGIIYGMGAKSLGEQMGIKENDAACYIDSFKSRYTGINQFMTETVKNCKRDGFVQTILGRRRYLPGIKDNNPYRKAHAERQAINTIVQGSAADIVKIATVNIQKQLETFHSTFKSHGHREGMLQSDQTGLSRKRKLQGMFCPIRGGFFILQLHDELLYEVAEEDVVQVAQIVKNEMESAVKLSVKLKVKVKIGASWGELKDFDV
Kind of test: Primer extension assay: inhibition of polymerase activity of Pol theta (molecular beacon fluorescence). Type of test: biochemical. The settings on record: Pol theta polymerase domain 4 nM; 15 min pre-incubation; fluorescence change over 30 min (ex 485 nm, em 535 nm); 11-point dilution series. The method, then: The ability of the compounds of Formula (I) to inhibit polymerase activity of Pol theta was determined using the assay described below.
A mixture of 20 uL of Pol theta polymerase domain (residues 1819-2590) at a final concentration of 4 nM in assay buffer (20 m M TRIS, pH 7.80, 50 mM KCl, 10 mM MgCl2, 1 mM DTT, 0.01% BSA, 0.01% Tween20) was added to test compounds (11-point dilution series of test compounds) except the low control wells without test compounds. The above enzyme and test compound inhibitor mixture was then incubated at room temperature for 15 min. An equal volume (20 μl) of dNTP substrate mixture (48 μM) and primed molecular beacon DNA (obtained by annealing template SEQ ID NO 2: (5′-CCTTCCTCCCGTGTCTTG-TACCTTCCCGTCA-GGAGGAAGG-3′) with 5′-TAMRA and 3′-BHQ and primer DNA (SEQ ID NO: 3; 5′-GACGGGAAGG-3′) in 10 mM Tris-HCl pH 8.0, 100 mM NaCl buffer) (96 nM) in assay buffer was added to all the test wells. The inhibition activity was measured by monitoring the fluorescence change over 30 min at 535 nm upon excitation at 485 nm. The high control (DMSO with enzyme) with high fluorescence intensity represents no inhibition of polymerase reaction while the low control (DMSO with buffer) with low fluorescence intensity represents full inhibition of polymerase activity. Slope of the reaction progress curves were used to calculate the rate of polymerization. The rates were used to determine the percent inhibition using a four-parameter inhibition model to generate IC50, Hill slope and max inhibition.

The compound `CN(C(=O)CNc1cc(Cl)cc(Cl)c1)c1ccc(F)cc1` [Example 31, 2-[(3,5-dichlorophenyl)amino]-N-(4-fluorophenyl)-N-methyl-acetamide] had an IC50 of 500 to 1000 nM. `Cc1nc(NCC(=O)N(C)c2ccc(Cl)c(Cl)c2)c(C#N)c(C)c1Cl` [Example 32, 2-(5-chloro-3-cyano-4,6-dimethylpyridin-2-ylamino)-N-(3,4-dichlorophenyl)-N-methylacetamide] showed an IC50 of under 200 nM. The same measure for `Cc1nc(OCC(=O)N(C)c2ccc(Cl)c(Cl)c2)c(C#N)c(C)c1Cl` [Example 33, 2-(5-chloro-3-cyano-4,6-dimethylpyridin-2-yloxy)-N-(3,4-dichlorophenyl)-N-methylacetamide]: under 200 nM; for `Cc1cc(NCC(=O)N(C)c2ccccc2)nc(C)c1Cl` [Example 34, 2-[(5-chloro-4,6-dimethylpyridin-2-yl)amino]-N-methyl-N phenylacetamide]: 500 to 1000 nM; for `Cc1nc(OCC(=O)N(C)c2ccc(Br)cc2)c(C#N)c(C)c1Cl` [Example 35, N-(4-bromophenyl)-2-[(5-chloro-3-cyano-4,6-dimethylpyridin-2-yl)oxy]-N-methylacetamide]: under 200 nM. For `Cc1c(Cl)cnc(NCC(=O)N(C)c2ccccc2)c1C#N` [Example 37, 2-(5-chloro-3-cyano-4-methylpyridin-2-ylamino)-N-methyl-N-phenylacetamide] the value was 200 to 500 nM; for `Cc1nc(NCC(=O)N(C)c2ccccc2)c(C#N)cc1Cl` [Example 38, 2-(5-chloro-3-cyano-6-methylpyridin-2-ylamino)-N-methyl-N-phenylacetamide], 200 to 500 nM. The same measure for `Cc1nc(NCC(=O)N(C)c2ccc(Br)cc2)c(C#N)c(C)c1Cl` [Example 39, N-(4-bromophenyl)-2-(5-chloro-3-cyano-4,6-dimethyl-pyridin-2-ylamino)-N-methylacetamide]: under 200 nM; for `Cc1nc(NCC(=O)N(C)c2ccc(Cl)cc2)c(C#N)c(C)c1Cl` [Example 40, 2-(5-chloro-3-cyano-4,6-dimethylpyridin-2-ylamino)-N-(4-chlorophenyl)-N-methylacetamide]: under 200 nM. For the compound `Cc1nc(OCC(=O)N(C)c2ccc(Cl)cc2)c(C#N)c(C)c1Cl` [Example 41, 2-[(5-chloro-3-cyano-4,6-dimethylpyridin-2-yl)oxy]-N-(4-chloro-phenyl)-N-methylacetamide], the IC50 is under 200 nM. For `Cc1nc(NCC(=O)N(C)c2ccc(F)cc2)c(C#N)c(C)c1Cl` [Example 42, 2-(5-chloro-3-cyano-4,6-dimethylpyridin-2-ylamino)-N-(4-fluorophenyl)-N-methylacetamide] the value was under 200 nM; for `Cc1nc(OCC(=O)N(C)c2ccc(F)cc2)c(C#N)c(C)c1Cl` [Example 43, 2-[(5-chloro-3-cyano-4,6-dimethylpyridin-2-yl)oxy]-N-(4-fluoro-phenyl)-N-methylacetamide], under 200 nM; for `CN(C(=O)CNc1nc(C(F)(F)F)cc(C(F)(F)F)c1C#N)c1ccc2occc2c1` [Example 46, N-(benzofuran-5-yl)-2-((3-cyano-4,6-bis(trifluoromethyl)pyridin-2-yl)amino)-N-methylacetamide], under 200 nM.

As for `[2H]C([2H])([2H])N(C(=O)CNc1nc(C(F)(F)F)cc(C(F)(F)F)c1C#N)c1ccc(F)cc1` [Example 47, 2-((3-cyano-4,6-bis(trifluoromethyl)pyridin-2-yl)amino)-N-(4-fluorophenyl)-N-(methyl-d3)acetamide], the IC50 is under 200 nM. In turn, `CN(C(=O)CNc1nc(C(F)(F)F)cc(C(F)(F)F)c1C#N)c1ccc(F)cc1Cl` [Example 48, N-(2-chloro-4-fluorophenyl)-2-((3-cyano-4,6-bis(trifluoromethyl)pyridin-2-yl)-amino)-N-methylacetamide] showed a concentration for half-maximal inhibition (IC50) of under 200 nM. The same measure for `CN(C(=O)CNc1nc(C(F)(F)F)cc(C(F)(F)F)c1C#N)c1ccc(F)cc1C#N` [Example 49, 2-((3-cyano-4,6-bis(trifluoromethyl)pyridin-2-yl)amino)-N-(2-cyano-4-fluorophenyl)-N-methylacetamide]: 500 to 1000 nM; for `CN(C(=O)CNc1nc(C(F)(F)F)cc(C(F)(F)F)c1C#N)c1ccc2c(c1)ncn2C` [Example 50, 2-((3-cyano-4,6-bis(trifluoromethyl)pyridin-2-yl)amino)-N-methyl-N-(1-methyl-1H-benzo[d]imidazol-5-yl)acetamide]: under 200 nM.

The compound `Cc1coc2ccc(N(C)C(=O)CNc3nc(C(F)(F)F)cc(C(F)(F)F)c3C#N)cc12` [Example 51, 2-((3-cyano-4,6-bis(trifluoromethyl)pyridin-2-yl)amino)-N-methyl-N-(3-methylbenzofuran-5-yl)acetamide] had an IC50 of under 200 nM. The same measure for `Cc1cc2cc(N(C)C(=O)CNc3nc(C(F)(F)F)cc(C(F)(F)F)c3C#N)ccc2o1` [Example 52, 2-((3-cyano-4,6-bis(trifluoromethyl)pyridin-2-yl)amino)-N-methyl-N-(2-methylbenzofuran-5-yl)acetamide]: under 200 nM.

`CN(C(=O)CNc1nc(C(F)(F)F)cc(C(F)(F)F)c1C#N)c1ccc2sccc2c1` [Example 53, N-(benzo[b]thiophen-5-yl)-2-((3-cyano-4,6-bis(trifluoromethyl)pyridin-2-yl)-amino)-N-methylacetamide] displayed an IC50 of under 200 nM. Regarding `CN(C(=O)CNc1nc(C(F)(F)F)cc(C(F)(F)F)c1C#N)c1ccc2c(cnn2C)c1` [Example 54, 2-((3-cyano-4,6-bis(trifluoromethyl)pyridin-2-yl)amino)-N-methyl-N-(1-methyl-1H-indazol-5-yl)acetamide], the IC50 is under 200 nM. With `CN(C(=O)CNc1nc(C(F)(F)F)cc(C(F)(F)F)c1C#N)c1ccc2c(ccn2C)c1` [Example 55, 2-((3-cyano-4,6-bis(trifluoromethyl)pyridin-2-yl)amino)-N-methyl-N-(1-methyl-1H-indol-5-yl)acetamide], the IC50 was under 200 nM. For `CN(C(=O)CNc1nc(C(F)(F)F)cc(C(F)(F)F)c1C#N)c1ccc2[nH]ccc2c1` [Example 56, 2-((3-cyano-4,6-bis(trifluoromethyl)pyridin-2-yl)amino)-N-(1H-indol-5-yl)-N-methylacetamide] the value was under 200 nM; for `CN(C(=O)CNc1nc(C(F)(F)F)cc(C(F)(F)F)c1C#N)c1ccc2ncncc2c1` [Example 57, 2-((3-cyano-4,6-bis(trifluoromethyl)pyridin-2-yl)amino)-N-methyl-N-(quinazolin-6-yl)acetamide], 200 to 500 nM; for `CN(C(=O)CNc1nc(C(F)(F)F)cc(C(F)(F)F)c1C#N)c1ccc2nccnc2c1` [Example 58, 2-((3-cyano-4,6-bis(trifluoromethyl)pyridin-2-yl)amino)-N-methyl-N-(quinoxalin-6-yl)acetamide], under 200 nM. For `CC(=O)N1Cc2ccc(N(C)C(=O)CNc3nc(C(F)(F)F)cc(C(F)(F)F)c3C#N)cc2C1` [Example 59, N-(2-acetylisoindolin-5-yl)-2-((3-cyano-4,6-bis(trifluoromethyl)pyridin-2-yl)amino)-N-methylacetamide] the value was 500 to 1000 nM; for `CN(C(=O)CNc1nc(C(F)(F)F)cc(C(F)(F)F)c1C#N)c1cc(Cl)cc(Cl)c1` [Example 60, 2-((3-cyano-4,6-bis(trifluoromethyl)pyridin-2-yl)amino)-N-(3,5-dichlorophenyl)-N-methylacetamide], under 200 nM. `CN(C(=O)CNc1nc(C(F)(F)F)cc(C(F)(F)F)c1C#N)c1ccc(Br)cc1` [Example 61, N-(4-bromophenyl)-2-((3-cyano-4,6-bis(trifluoromethyl)pyridin-2-yl)amino)-N-methylacetamide] displayed an IC50 of under 200 nM.
